Source: patent US10160747B2, “Compounds and methods for kinase modulation, and indications therefor” (Plexxikon Inc., priority 2016, dated 2018)

Tested on: MOLM-14 F691L (endogenous FLT3 ITD and transfected FLT3 F691L)
Assay: MOLM-14 F691L cell proliferation assay (CellTiter-Glo)
Format: cell-based
Settings: Homo sapiens, MOLM-14, 72 h; 3 d growth, GMean
Procedure, shortened: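 MOLM-14 cells (FLT3 ITD) carrying D835Y or F691L, 1×10^4 cells/well, eight 1:3 dilutions from 1 μM final, 0.2% DMSO, 3 days at 37 °C, 5% CO2. Viability by CellTiter-Glo luminescence (ATP content); IC50 from concentration-response.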

IC50, 0.0001 to 10 µM:
COc1ncc(NC(=O)Cc2ccc(-c3cnc4[nH]c(-c5ccc(C#N)nc5)cc4c3)cc2F)cc1C(F)(F)F [Compound P-0011, 2-[4-[2-(6-cyano-3-pyridyl)-1H-pyrrolo[2,3-b]pyridin-5-yl]-2-fluoro-phenyl]-N-[6-methoxy-5-(trifluoromethyl)-3-pyridyl]acetamide]
COc1ncc(NC(=O)Cc2ccc(-c3cnc4[nH]c(-c5ccnc(C#N)c5)cc4c3)cc2F)cc1C(F)(F)F [Compound P-0013, 2-[4-[2-(2-cyano-4-pyridyl)-1H-pyrrolo[2,3-b]pyridin-5-yl]-2-fluoro-phenyl]-N-[6-methoxy-5-(trifluoromethyl)-3-pyridyl]acetamide]
COc1ncc(NC(=O)Cc2ccc(-c3cnc4[nH]c(-c5ccc(C#N)nc5)cc4c3)c(F)c2)cc1C(F)(F)F [Compound P-0014, 2-[4-[2-(6-cyano-3-pyridyl)-1H-pyrrolo[2,3-b]pyridin-5-yl]-3-fluoro-phenyl]-N-[6-methoxy-5-(trifluoromethyl)-3-pyridyl]acetamide]
COc1ncc(NC(=O)Cc2ccc(-c3cnc4[nH]c(-c5cnn(C(F)F)c5)cc4c3)cc2F)cc1C(F)(F)F [Compound P-0015, 2-[4-[2-[1-(difluoromethyl)pyrazol-4-yl]-1H-pyrrolo[2,3-b]pyridin-5-yl]-2-fluoro-phenyl]-N-[6-methoxy-5-(trifluoromethyl)-3-pyridyl]acetamide]
COc1ncc(NC(=O)Cc2ccc(-c3cnc4[nH]c(-c5ccnc(C#N)c5)cc4c3)c(F)c2)cc1C(F)(F)F [Compound P-0016, 2-[4-[2-(2-cyano-4-pyridyl)-1H-pyrrolo[2,3-b]pyridin-5-yl]-3-fluoro-phenyl]-N-[6-methoxy-5-(trifluoromethyl)-3-pyridyl]acetamide]
Cn1cc(Nc2ncc(-c3ccc(CC(=O)Nc4cc(C(F)(F)F)ccn4)cc3F)cn2)cn1 [Compound P-0017, 2-[3-fluoro-4-[2-[(1-methylpyrazol-4-yl)amino]pyrimidin-5-yl]phenyl]-N-[4-(trifluoromethyl)-2-pyridyl]acetamide]
Cn1cc(Nc2ncc(-c3cc(F)c(CC(=O)Nc4cc(C(F)(F)F)ccn4)cc3F)cn2)cn1 [Compound P-0019, 2-[2,5-difluoro-4-[2-[(1-methylpyrazol-4-yl)amino]pyrimidin-5-yl]phenyl]-N-[4-(trifluoromethyl)-2-pyridyl]acetamide]
Cn1cnc(Nc2ncc(-c3ccc(CC(=O)Nc4cc(C(F)(F)F)ccn4)cc3)cn2)c1 [Compound P-0022, 2-[4-[2-[(1-methylimidazol-4-yl)amino]pyrimidin-5-yl]phenyl]-N-[4-(trifluoromethyl)-2-pyridyl]acetamide]
O=C(Cc1ccc(-c2cnc(Nc3cnn(C(F)F)c3)nc2)cc1)Nc1cc(C(F)(F)F)ccn1 [Compound P-0023, 2-[4-[2-[[1-(difluoromethyl)pyrazol-4-yl]amino]pyrimidin-5-yl]phenyl]-N-[4-(trifluoromethyl)-2-pyridyl]acetamide]
COc1cc(-c2cc3cc(-c4ccc(CC(=O)Nc5cncc(C(F)(F)F)c5)cc4F)cnc3[nH]2)ccn1 [Compound P-0200, 2-(3-fluoro-4-(2-(2-methoxypyridin-4-yl)-1H-pyrrolo[2,3-b]pyridin-5-yl)phenyl)-N-(5-(trifluoromethyl)pyridin-3-yl)acetamide]
O=C(Cc1ccc(-c2cnc3[nH]c(-c4ccnc(N5CCOCC5)c4)cc3c2)c(F)c1)Nc1cncc(C(F)(F)F)c1 [Compound P-0201, 2-[3-fluoro-4-[2-(2-morpholino-4-pyridyl)-1H-pyrrolo[2,3-b]pyridin-5-yl]phenyl]-N-[5-(trifluoromethyl)-3-pyridyl]acetamide]
CCOc1n[nH]c2ncc(-c3ccc(CC(=O)Nc4cnc(OC)c(C(F)(F)F)c4)cc3F)cc12 [Compound P-0202, 2-[4-(3-ethoxy-1H-pyrazolo[3,4-b]pyridin-5-yl)-3-fluoro-phenyl]-N-[6-methoxy-5-(trifluoromethyl)-3-pyridyl]acetamide]
COc1ncc(NC(=O)Cc2ccc(-c3cnc4[nH]nc(N)c4c3)c(F)c2)cc1C(F)(F)F [Compound P-0203, 2-[4-(3-amino-1H-pyrazolo[3,4-b]pyridin-5-yl)-3-fluoro-phenyl]-N-[6-methoxy-5-(trifluoromethyl)-3-pyridyl]acetamide]
CC(C)(O)C#Cc1cc2cc(-c3ccc(CC(=O)Nc4cncc(C(F)(F)F)c4)cc3)cnc2[nH]1 [Compound P-0204, 2-[4-[2-(3-hydroxy-3-methyl-but-1-ynyl)-1H-pyrrolo[2,3-b]pyridin-5-yl]phenyl]-N-[5-(trifluoromethyl)-3-pyridyl]acetamide]
Cn1cc(Nc2ncc(-c3ccc(CC(=O)Nc4cncc(C(F)(F)F)c4)cc3F)cn2)cn1 [Compound P-0205, 2-[3-fluoro-4-[2-[(1-methylpyrazol-4-yl)amino]pyrimidin-5-yl]phenyl]-N-[5-(trifluoromethyl)-3-pyridyl]acetamide]
COc1ncc(NC(=O)Cc2ccc(-c3cnc(Nc4cnn(C)c4)nc3)c(F)c2)cc1C(F)(F)F [Compound P-0206, 2-[3-fluoro-4-[2-[(1-methylpyrazol-4-yl)amino]pyrimidin-5-yl]phenyl]-N-[6-methoxy-5-(trifluoromethyl)-3-pyridyl]acetamide]
Cn1cc(Nc2ncc(-c3cc(F)c(CC(=O)Nc4cncc(C(F)(F)F)c4)cc3F)cn2)cn1 [Compound P-0207, 2-[2,5-difluoro-4-[2-[(1-methylpyrazol-4-yl)amino]pyrimidin-5-yl]phenyl]-N-[5-(trifluoromethyl)-3-pyridyl]acetamide]
COc1ncc(NC(=O)Cc2cc(F)c(-c3cnc(Nc4cnn(C)c4)nc3)cc2F)cc1C(F)(F)F [Compound P-0208, 2-[2,5-difluoro-4-[2-[(1-methylpyrazol-4-yl)amino]pyrimidin-5-yl]phenyl]-N-[6-methoxy-5-(trifluoromethyl)-3-pyridyl]acetamide]
O=C(Cc1ccc(-c2cnc(Nc3cnn(C(F)F)c3)nc2)cc1)Nc1cncc(C(F)(F)F)c1 [Compound P-0209, 2-[4-[2-[[1-(difluoromethyl)pyrazol-4-yl]amino]pyrimidin-5-yl]phenyl]-N-[5-(trifluoromethyl)-3-pyridyl]acetamide]
Cc1ncc(NC(=O)Cc2ccc(-c3cnc(Nc4cnn(C(F)F)c4)nc3)cc2)cc1C(F)(F)F [Compound P-0210, 2-[4-[2-[[1-(difluoromethyl)pyrazol-4-yl]amino]pyrimidin-5-yl]phenyl]-N-[6-methyl-5-(trifluoromethyl)-3-pyridyl]acetamide]
COc1ncc(NC(=O)Cc2ccc(-c3cnc(Nc4cnn(C(F)F)c4)nc3)cc2)cc1C(F)(F)F [Compound P-0211, 2-[4-[2-[[1-(difluoromethyl)pyrazol-4-yl]amino]pyrimidin-5-yl]phenyl]-N-[6-methoxy-5-(trifluoromethyl)-3-pyridyl]acetamide]
